Measurements reported in patent US8637274B2, “Inhibitor for the formation of gamma-secretase complex” (Kowa Company, Ltd., priority 2003, dated 2014).

Tests used:
Type in all cases: cell-based
[1] = system: cholesterol in lipid rafts of SH-SY5Y cell; experiment: Quantification of cholesterol content in sucrose density-gradient cell membrane fractions (lipid rafts = fraction 3); settings: for cholesterol content in lipid rafts (fraction 3): 5% LPDS, 48 hours, FIG. 4
Procedure: (§1) SH-SY5Y cell line (Invitrogen) was subcultured in a complete medium (DMEM (Sigma) containing 10% of fetal bovine serum (Sigma), 100 units/mL of penicillin and […] of streptomycin) using a dish of 15 cm diameter at 37° C.
(§2) The SH-SY5Y cell was cultured in a dish of 15 cm diameter, and the cells reached confluent growth in the dish was washed with phosphate buffered saline (PBS). The cells were detached from the dish using cell scraper and recovered in PBS, then centrifuged at 9807 m/s^2 for 5 minutes. The precipitated cells were suspended in buffer R (20 mM Tris-HCl pH 7.6, 150 mM NaCl, 1 mM EDTA) containing 200 μL of a mixture of 2% CHAPSO and proteases (Complete protease mixture) (Roche). Solubilization of the cell was performed by means of leaving the cell suspension for standing on an ice bath for 20 minutes. After solubilizing, 800 μL of the buffer R containing 56.25% sucrose was added to make the final concentration to be 45% sucrose and 0.4% CHAPSO, and placed in the bottom of centrifuging tube. Further, 3 mL of the buffer R containing 35% sucrose and 1 mL of the buffer R containing 5% sucrose were overlaid sequentially on top of the layers. After centrifugation at 980700 m/s^2 (32000 rpm) for 16 hours at 4° C. using Beckman ultracentrifuge equipped with SW55 rotor, each 500 μL aliquot was withdrawn from top as fractions.
(§3) The SH-SY5Y cell was cultured in a dish of 15 cm diameter, and the cells reached confluent growth in the dish were washed with PBS. After that, methyl-β-cyclodextrin (Sigma) dissolved in DMEM to make the final concentration to be 0 to 2 mM was added to the dish, and cultured at 37° C. for another 30 minutes. These cells were processed and fractionated according to the method described in the Reference Example 2, and subjected to the immunoblotting.
The SH-SY5Y cell was cultured in a dish of 15 cm diameter and the cells of just before arriving confluent growth in a dish were washed with PBS. […]

[2] = system: active complex of γ-secretase (nicastrin, presenilin-1, presenilin-2, Pen-2) in lipid rafts of SH-SY5Y cell; experiment: Immunoblotting of γ-secretase constituents in sucrose density-gradient cell membrane fractions; settings: for constituents of γ-secretase (nicastrin, presenilin-1, presenilin-2) in lipid rafts fraction (fraction 3): FIG. 3A-3C
Procedure: as §1, §2
(§4) After SDS-polyacrylamide gel electrophoresis was carried out for each fraction obtained in the Reference Example 2, immunoblotting was performed. The antibodies used were nicastrin N-19 (Santa Cruz) as a nicastrin recognizing antibody, anti-G1L3 as an antibody recognizing C-terminal region of presenilin 1, anti-G2L as an antibody recognizing C-terminal region of presenilin 2, anti-PNT3 as a PEN-2 recognizing antibody, Flotillin-1 (BD Sciences) as a flotillin-1 recognizing antibody, and Calnexin (BD Biosciences) as a calnexin recognizing antibody.
After reacting at room temperature for 1 hour or at 4° C. overnight, the gels were washed twice with TBS-Tween (20 mM Tris-buffered saline, pH 7.4, 0.05% Tween 20). Then, the gels were reacted with HRP-conjugated anti mouse IgG antibody, anti goat IgG antibody, or anti rabbit IgG antibody each for 1 hour, and washed with TBS-Tween. And then, an X-ray film was exposed to the chemiluminescence generated using SuperSignal West Dura (Pierce).
as §3
The SH-SY5Y cell was cultured in a dish of 15 cm diameter and the cells of just before arriving confluent growth in a dish were washed with PBS. After that, the cells were cultured in DMEM containing 5% of LPDS, 250 μM of mevalonic acid and 50 μM of compactin or 5 μM of pitavastatin as a cholesterol synthesis inhibitor for 48 hours. These cells were processed and fractionated according to the method described in the Reference Example 2, and subjected to the immunoblotting.

[3] = system: flotillin-1 (marker protein of lipid rafts), SH-SY5Y cell; experiment: Immunoblotting of lipid raft marker flotillin-1 in sucrose density-gradient cell membrane fractions; settings: for flotillin in the lipid rafts fraction (structure of lipid rafts): 48 hours, FIG. 3D
Procedure: as §1, §2, §4
After reacting at room temperature for 1 hour or at 4° C. overnight, the gels were washed twice with TBS-Tween (20 mM Tris-buffered saline, pH 7.4, 0.05% Tween 20). […]

[4] = 5 μM pitavastatin plus 250 μM mevalonic acid
[5] = 5 μM pitavastatin plus 250 μM mevalonic acid, 48 hours
[6] = 50 μM compactin plus 250 μM mevalonic acid
[7] = 50 μM compactin plus 250 μM mevalonic acid, 48 hours

O=C(O)C[C@H](O)C[C@H](O)/C=C/c1c(C2CC2)nc2ccccc2c1-c1ccc(F)cc1 [pitavastatin, (3R,5S,6E)-7-[2-cyclopropyl-4-(4-fluorophenyl)-3-quinolyl]-3,5-dihydroxy-6-heptenoic acid]
cholesterol content in lipid rafts (fraction 3) [1, 4]: decreased
formation of an active complex of γ-secretase in lipid rafts [2, 5]: inhibited the formation of an active complex of γ-secretase in lipid rafts
constituents of γ-secretase (nicastrin, presenilin-1, presenilin-2) in lipid rafts fraction (fraction 3) [2, 5]: disappeared from lipid rafts fraction
flotillin in the lipid rafts fraction (structure of lipid rafts) [3, 4]: still remained in the lipid rafts fraction

methyl-β-cyclodextrin
cholesterol in lipid rafts (fraction 3) ([1]; methyl-β-cyclodextrin 0 to 2 mM, 30 minutes, 37° C., FIG. 2): removed from lipid rafts
formation of an active complex of γ-secretase in lipid rafts ([2]; methyl-β-cyclodextrin 0 to 2 mM, 30 minutes): inhibited the formation of an active complex of γ-secretase in lipid rafts
constituents of γ-secretase (nicastrin, presenilin-1, presenilin-2, Pen-2) in lipid rafts fraction (fraction 3) ([2]; methyl-β-cyclodextrin 0 to 2 mM, 30 minutes, FIG. 1A-1D): disappeared from lipid rafts fraction
distribution of flotillin (marker protein of lipid rafts) among fractions / raft structure ([3]; methyl-β-cyclodextrin 0 to 2 mM, 30 minutes, FIG. 1E): moved from the original position of the lipid rafts of fraction 3 to fraction 9 and 10

CC[C@H](C)C(=O)O[C@H]1CCC=C2C=C[C@H](C)[C@H](CC[C@@H]3C[C@@H](O)CC(=O)O3)[C@H]21 [compactin, (+)-(1S,3R,7S,8S.8aR)-1,2,3,7,8,8a-hexahydro-7-methyl-8-[2-[(2R,4R)-tetrahydro-4-hydroxy-6-oxo-2H-pyran-2-yl]ethyl]-1-naphthyl (S)-2-methylbutyrate]
cholesterol content in lipid rafts (fraction 3) [1, 6]: decreased
formation of an active complex of γ-secretase in lipid rafts [2, 7]: inhibited the formation of an active complex of γ-secretase in lipid rafts
constituents of γ-secretase (nicastrin, presenilin-1, presenilin-2) in lipid rafts fraction (fraction 3) [2, 7]: disappeared from lipid rafts fraction
flotillin in the lipid rafts fraction (structure of lipid rafts) [3, 6]: still remained in the lipid rafts fraction
